Assay: Organoleptic test of the compounds against sucrose
Assay type: in vivo
Parameters: key: 3: sweeter than the control solution; 2: sweetness comparable with the control solution; 1: less sweet than the control solution but still sweet
Details: 0.4 mg/ml (400 ppm) in non-carbonated mineral water vs sucrose 20 g/l; panel of 3-4 panelists
Protocol: The isolated pure compound was dissolved in non-carbonated mineral water (“Evian”) in a concentration of 0.4 mg/ml (400 ppm). The sweet taste of each sample was compared by a panel of 3-4 panelists with a solution of sucrose in a concentration of 20 g/I.

For “11-Oxoisomogroside V [11-Isomogroside V]”, the Sweetness was 3.

For `C[C@H](CC[C@@H](O[C@@H]1O[C@H](CO[C@@H]2O[C@H](CO)[C@@H](O)[C@H](O)[C@H]2O)[C@@H](O)[C@H](O)[C@H]1O[C@@H]1O[C@H](CO)[C@@H](O)[C@H](O)[C@H]1O)C(C)(C)O)[C@H]1CC[C@@]2(C)[C@@H]3CC=C4C(CC[C@H](O[C@@H]5O[C@H](CO[C@@H]6O[C@H](CO[C@@H]7O[C@H](CO)[C@@H](O)[C@H](O)[C@H]7O)[C@@H](O)[C@H](O)[C@H]6O)[C@@H](O)[C@H](O)[C@H]5O)C4(C)C)[C@]3(C)[C@H](O)C[C@]12C` (some centres unmarked) [Mogroside Via], the Sweetness was 3.
